Results on 19 molecules are retold here after patent US5605929A, “Methods and compositions for inhibiting 5α-reductase activity” (priority 1995, dated 1997).

The test system of one test is hamster flank organ. The test is described as follows: Flank organ, castrated immature male hamsters, topical treatment. It is filed as in vivo, Syrian golden hamster. Conditions: for effect on the contralateral flank organ: topical to right flank organ; for Percent Inhibition / Pigmented macule Right (+T): Table 5, T 0.5 μg + fatty acid 1 mg; for Percent Inhibition / Pigmented macule Right (+T) / Pigmented macule Left: 21 days; for Pigmented macule Right (+T): T alone 49.6 ± 8.3; for Pigmented macule Left: Table 5, fatty acid 1 mg without T; for inhibition of T-induced growth of pigmented macule: hamster, in vivo. As for the experimental part: One to two weeks after castration, the hair on the lower back of each animal was clipped with an electric hair clipper and then shaved weekly to expose the flank organs. The animals were divided into 5 animals/treatment group. A treatment solution (5 μl) was applied topically to the right flank organ once a day using a Pipetteman and a polypropylene disposable tip. Unless specified the left flank organ was not treated. The treatment solution contained either (a) ethanol alone (vehicle and control), (b) an androgen (T or 5α-DHT), (c) a fatty acid, or (d) a combination of an androgen and a fatty acid. The flank organ was wiped with an alcohol pad to remove residual compound before each treatment. […] The flank organs, both the treated and untreated sides, were evaluated with methods to be described below to determine the effect of these treatments of the growth of the pigmented macules and the sebaceous glands. The body weight of each animal was recorded before and after treatment.
The data are presented as mean ± standard deviation. […]

In test [1] the target is T1, 5α-Reductase of Rat Liver Microsomes (Rattus norvegicus, UniProt P24008).
T1 sequence (P24008 1-259): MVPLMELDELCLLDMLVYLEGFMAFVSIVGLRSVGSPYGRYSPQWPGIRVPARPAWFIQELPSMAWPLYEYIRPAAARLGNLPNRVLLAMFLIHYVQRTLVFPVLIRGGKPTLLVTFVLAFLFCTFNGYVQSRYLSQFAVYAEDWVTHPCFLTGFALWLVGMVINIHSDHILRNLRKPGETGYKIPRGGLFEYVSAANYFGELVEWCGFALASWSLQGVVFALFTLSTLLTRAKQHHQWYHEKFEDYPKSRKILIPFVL
The test is described as follows: biochemical. Conditions: for inhibition at 5 µM: read-out: % Inhibition of [^3 H]4-MA binding, Table 2, 5 μM.
Experimental: Briefly, the binding assay solution, in a final volume of 0.15 ml, contained microsomes (2-20 μg of protein), 0.08 μCi of [^3 H]4-MA, 0.1 mM-NADPH, 1 mM-dithiothreitol and 50 mM-potassium phosphate, pH 7.0, with or without the indicated amount of a lipid or an inhibitor preparation. Lipids were dissolved in ethanol and added in 1-5 μl volumes. Control tubes received the same amount of ethanol. After incubation at 0° C. for 1 h, the [^3 H]4-MA bound to microsomes was determined by collecting microsomes on a Whatman GF/1F glass fibre filter and washing with 10 ml of 20 mM-potassium phosphate, pH 7.0, containing 0.01% CHAPS to remove unbound [^3 H]4-MA.
Microsomes were prepared at 4° C. from a buffered 0.32M-sucrose homogenate of human liver and from the livers of adult Sprague-Dawley female rats by differential centrifugation as described previously (Liang et al., 1990), and were used in the assay of 5α-reductase activity. In some experiments, microsomes were solubilized with 0.1% polyoxyethylene ether W-1 as described previously (Liang et al., 1990), except for the substitution of polyoxyethylene ether W-1 for Lubrol-WX.

Where [2] appears, read: read-out: % Inhibition of [^3 H]4-MA binding, Table 1, 10 μM.
[3] abbreviates: read-out: % Inhibition of [^3 H]4-MA binding, Table 1, 40 μM.
Setting [4] is: read-out: % Inhibition of [^3 H]4-MA binding, Table 1, 200 μM.
[5] abbreviates: read-out: % Inhibition of [^3 H]4-MA binding, Table 2, 10 μM.
Setting [6] is: read-out: % Inhibition of [^3 H]4-MA binding, Table 2, 40 μM.
Setting [7] is: read-out: % Inhibition of [^3 H]4-MA binding, Table 2, 200 μM.
[8] abbreviates: read-out: % Inhibition of [^3 H]4-MA binding.

Read-outs that look alike come from different tables or passages of the source.

A word on the IC50: it is the concentration needed to halve the response being measured. The inhibition is the drop in the measured response relative to a control, in per cent.

`C[C@]12CC[C@H]3[C@@H](CCC4=CC(=O)CC[C@@]43C)[C@@H]1CC[C@@H]2O` [T, Testosterone, reference compound]: the “Pigmented Macule, Untreated (L)” value with hamster flank organ (Table 4, T 0.5 μg alone, 18 days) was determined as 3.6 ± 0.5 mm^2. The “effect on the contralateral flank organ” value with hamster flank organ is given as “no detectable effect”.
`CCCCC/C=C\C/C=C\C/C=C\C/C=C\CCCC(=O)O` [Arachidonic acid]: in the test with hamster flank organ, the “Percent Inhibition” value stood at 28%. Moreover, in the test with hamster flank organ, the “Pigmented macule Right (+T)” value was 35.7 ± 7.9 mm^2. In addition, the “Pigmented macule Left” value in the test on hamster flank organ was 4.7 ± 1.6 mm^2. Further, the “inhibition of T-induced growth of pigmented macule” value (shortened to “inhibition … of pigmented macule”) in the test with hamster flank organ was “Weak inhibitions”. In test [1], this molecule registered an IC50 of 65 µM. In addition, the inhibition at 10 µM in test [1] (setting [2]) and in test [1] (setting [5]) was under 10% each time. Moreover, the inhibition at 40 µM in test [1] (setting [3]) is 30 ± 10%; in test [1] (setting [6]), 30%. The inhibition at 200 µM in test [1] (setting [4]) was determined as 88 ± 5%; in test [1] (setting [7]) it was 88%.
As to `CC/C=C\C/C=C\C/C=C\CCCCCCCC(=O)O` [α-Linolenic acid, α-linolenic acid], in the test on hamster flank organ, the “Percent Inhibition” value amounted to 44%, the “Pigmented macule Right (+T)” value is listed as 27.6 ± 8.2 mm^2, the “Pigmented macule Left” value is on record as 4.1 ± 1.2 mm^2 and the “inhibition … of pigmented macule” value was “less active than γ-LA”. Further, the inhibition at 10 µM in test [1] (setting [2]) came out at 19 ± 3%. The inhibition at 40 µM in test [1] (setting [3]) was 27 ± 7%. Also, the inhibition at 200 µM in test [1] (setting [4]) is 84 ± 6%. Besides, the inhibition at 5 µM in test [1] was under 10%. Further, the inhibition at 10 µM in test [1] (setting [5]) amounted to 19%. Moreover, the inhibition at 40 µM in test [1] (setting [6]) turned out to be 27%. Also, in test [1] (setting [7]), the inhibition at 200 µM came out at 84%.
`C[C@]12CCC(=O)C[C@@H]1CC[C@@H]1[C@@H]2CC[C@]2(C)[C@@H](O)CC[C@@H]12` [5α-DHT, 5α-dihydrotestosterone, reference compound]: the “effect on the contralateral flank organ” value in the test on hamster flank organ is listed as “no detectable effect”.
Turning to `CCCCC/C=C\C/C=C\CCCCCCCC(=O)O` [Linoleic acid], in the test on hamster flank organ, the “Percent Inhibition” value stood at 52%. Further, the “Pigmented macule Right (+T)” value in the test on hamster flank organ is 23.9 ± 5.0 mm^2. Moreover, in the test on hamster flank organ, the “Pigmented macule Left” value is on record as 5.4 ± 1.6 mm^2. Besides, the “inhibition … of pigmented macule” value in the test with hamster flank organ was “active”. This molecule also gave an IC50 in test [1] of 117 µM. Besides, the inhibition at 10 µM in test [1] (setting [2]) and in test [1] (setting [5]) was under 10% throughout. Also, the inhibition at 40 µM in test [1] (setting [3]) came to 12 ± 3%; in test [1] (setting [6]), 12%. Also, the inhibition at 200 µM in test [1] (setting [4]) is 86 ± 4%; in test [1] (setting [7]) it was 86%.
Molecule `CCCCC/C=C\C/C=C\C/C=C\CCCCC(=O)O[C@H]1CC[C@@]2(C)C(=CC[C@H]3[C@@H]4CC[C@H]([C@H](C)CCCC(C)C)[C@@]4(C)CC[C@@H]32)C1` [cholesteryl γ-linolenate] gave an IC50 in test [1] of over 200 µM.
Same read-out and setting: under `CCCCCCCCC=CCC=CCC=CCCCC(=O)O` [5,8,11-eicosatrienoic acid] stands 50 µM.
As for `CC/C=C\C/C=C\C/C=C\CCCCCCCCCC(=O)O` [11,14,17-cis-Eicosatrienoic Acid, 11,14,17-eicosatrienoic acid], in test [1], the IC50 is 29 µM and the inhibition at 5 µM is under 10%. In addition, the inhibition at 10 µM in test [1] (setting [5]) came out at 1%. The inhibition at 40 µM in test [1] (setting [6]) came to 78%. The inhibition at 200 µM in test [1] (setting [7]) stood at 94%.
For `CCCCCC/C=C\CCCCCCCCC(=O)O` [10-cis-Heptadecenoic Acid, 10-heptadecenoic acid], in test [1], the IC50 is 28 µM and the inhibition at 5 µM was under 10%. In addition, in test [1] (setting [5]), the inhibition at 10 µM is under 10%. Further, the inhibition at 40 µM in test [1] (setting [6]) is 83%. The inhibition at 200 µM in test [1] (setting [7]) came to 84%.
With `CCCCCC/C=C\CCCCCCCCCCC(=O)O` [12-cis-Nonadecenoic Acid, 12-nonadecenoic acid], in test [1], the IC50 stood at 90 µM and the inhibition at 5 µM is under 10%. Moreover, the inhibition at 10 µM in test [1] (setting [5]) is under 10%. In test [1] (setting [6]), the inhibition at 40 µM stood at 32%. Moreover, in test [1] (setting [7]), the inhibition at 200 µM was determined as 91%.
In turn, `CCCCC/C=C\C/C=C\C/C=C\CCCCC(=O)Cl` [γ-Linolenoyl Chloride, γ-linolenoyl chloride] yielded an IC50 in test [1] of over 200 µM. Also, the inhibition at 10 µM in test [1] (setting [5]) was under 10%. Moreover, in test [1] (setting [6]), the inhibition at 40 µM is under 10%. Moreover, in test [1] (setting [7]), the inhibition at 200 µM is under 10%.
On to `CCCCC/C=C\C/C=C\CCCCCCCCO` [Linoleyl alcohol], for which, in test [1] (setting [8]), the inhibition at 10 µM is under 10%, the inhibition at 40 µM is under 10% and the inhibition at 200 µM is 25 ± 5%.
Regarding `CCCCCCCC/C=C\CCCCCCCC(=O)O` [Oleic acid], in the test with hamster flank organ, the “Percent Inhibition” value is 43%, the “Pigmented macule Right (+T)” value was determined as 28.1 ± 8.3 mm^2, the “Pigmented macule Left” value is given as 4.7 ± 0.5 mm^2 and the “inhibition … of pigmented macule” value is “active”. Besides, in test [1], the IC50 worked out at 128 µM and the inhibition at 5 µM was under 10%. Further, the inhibition at 10 µM in test [1] (setting [2]) is under 10%. Besides, the inhibition at 40 µM in test [1] (setting [3]) was 16 ± 6%. The inhibition at 200 µM in test [1] (setting [4]) stood at 63 ± 12%. For the same molecule, the inhibition at 10 µM in test [1] (setting [5]) was under 10%. Further, the inhibition at 40 µM in test [1] (setting [6]) is 16%. The inhibition at 200 µM in test [1] (setting [7]) worked out at 63%.
On to `CCCCCCCCCCC/C=C\CCCCC(=O)O` [Petroselinic acid], for which the inhibition at 40 µM in test [1] (setting [3]) and in test [1] (setting [6]) was under 10% each time. The inhibition at 200 µM in test [1] (setting [4]) was determined as 52 ± 9%; in test [1] (setting [7]), 52%.
With `CCCCCCCCCCCCCCCC(=O)O` [Palmitic acid], in the test on hamster flank organ, the “Percent Inhibition” value is on record as 25%, the “Pigmented macule Right (+T)” value worked out at 37.2 ± 6.3 mm^2, the “Pigmented macule Left” value is 5.1 ± 2.9 mm^2 and the “inhibition … of pigmented macule” value is recorded as “Weak inhibitions”. Further, in test [1] (setting [4]), the inhibition at 200 µM is under 10%. Moreover, in test [1] (setting [7]), the inhibition at 200 µM was under 10%.
Consider `CCCCC/C=C\C/C=C\CCCCCCCCCCCC(=O)O` [13,16-Docosadienoic Acid, 13,16-docosadienoic acid], for which, in test [1], the IC50 worked out at 118 µM and the inhibition at 5 µM was under 10%. For the same molecule, in test [1] (setting [5]), the inhibition at 10 µM is under 10%. Besides, the inhibition at 40 µM in test [1] (setting [6]) was 21%. In addition, in test [1] (setting [7]), the inhibition at 200 µM came to 93%.
For `CC/C=C\C/C=C\C/C=C\CCCCCCCCCC(=O)Cl` [11,14,17-cis-Eicosatrienoyl Chloride, 11,14,17-eicosatrienoyl chloride], in test [1], the IC50 was over 200 µM and the inhibition at 5 µM was under 10%. For the same molecule, the inhibition at 10 µM in test [1] (setting [5]) was under 10%. The inhibition at 40 µM in test [1] (setting [6]) was under 10%. Besides, the inhibition at 200 µM in test [1] (setting [7]) was under 10%.
Turning to `CCCCC/C=C\C/C=C\C/C=C\CCCCCO` [γ-Linolenyl Alcohol, γ-linolenyl alcohol], in test [1], the IC50 is over 200 µM and the inhibition at 5 µM was under 10%. Moreover, the inhibition at 10 µM in test [1] (setting [5]) is under 10%. Besides, in test [1] (setting [6]), the inhibition at 40 µM was under 10%. Also, the inhibition at 200 µM in test [1] (setting [7]) was found to be 41%.
In the case of `CC/C=C\C/C=C\C/C=C\C/C=C\C/C=C\C/C=C\CCCO` [cis4,7,10,13,,16,19-docosahexenol], in test [1] (setting [8]), the inhibition at 200 µM worked out at 51%.
